From article PMC10423278, “Delivered complementation in planta (DCIP) enables measurement of peptide-mediated protein delivery efficiency in plants” (Communications Biology, 2023)
No end group written: not given here.

How the values were obtained:
[1] = tested on: DCIP-expressing leaves (intact); experiment: DCIP in attached, intact leaves incubated in situ; type: cell-based, Nicotiana benthamiana
Description: We next confirmed that DCIP is capable of detecting successful delivery in attached, intact leaves instead of leaf discs. DCIP-expressing leaves were thus infiltrated with 100 μM R9-GFP11 solutions and allowed to incubate in situ. During this time, the infiltrated liquid would dry, rendering the effective treatment concentration difficult to compare to the above leaf disc assays. We then assessed the amount of sfGFP complementation at 4 or 24 h post infiltration with 100 μM R9-GFP11 (Fig. 4a). […] We also tested whether or not 24 h-treated cells were still competent to R9-mediated delivery; we retreated a previously 24H treated leaf with 100 μM R9-GFP11, and imaged 4 h post re-treatment. […] The limited fluorescence recovery with re-treatment could be due to an induced stress response that decreases the cell wall permeability.
Three days after agroinfiltration, DCIP-expressing leaves were infiltrated with the treatment solutions. Unless otherwise stated, an 8 mm punch was then excised from the infiltrated area and plated, abaxial side up, onto ½ MS pH 5.7 agar plates. The plates were then left to incubate under ambient conditions for 4–5 h before imaging. For cold temperature treatment, after infiltration with ice-cold solutions of R9-GFP11 and disc excision, the leaf discs were plated onto ice-cold agar and immediately transferred to a 4 °C refrigerator for incubation. After incubation, the agar plates with leaf discs were kept on ice until the moment of imaging. For in situ incubation, leaves were simply infiltrated and the plant was returned to the growing chamber for incubation. […]
Excised leaf discs were imaged on a Zeiss LSM880 laser scanning confocal microscope. Images for semi-quantitative analysis were collected using a ×20/1.0NA Plan-apochromat water immersion objective and larger field-of-views were collected using a ×5 objective. […] For quantification experiments, z-stacks were acquired with the imaging depth set to capture the epidermal layer down to the point where mCherry nuclei could no longer be detected. z-stacks from four fields of view were acquired for every treatment condition. Quantitative image analysis and downstream processing was performed using Cell Profiler 3.0. […] Cell Profiler was then used to quantify the number, mCherry intensity, GFP intensity, and red (mCherry)/green (sfGFP) ratio of the projected nuclei.
Data obtained from Cell Profiler was processed using a script written in Python 3.9. Using the Cell Profiler data, GFP positive nuclei were counted using a Python script by setting a threshold defined as a one-tailed 99% confidence interval above the mean green/red ratio in the untreated control or water infiltration control of each experiment. […]

[2] = R9-GFP11 dot blot assay (anti-GFP11) of leaf lysates, tissue stability; type: in vivo, Nicotiana benthamiana; conditions: 500 μM in water infiltrated, in situ, 0, 4, 8, 24 h; 12 mm disc lysed in RIPA, dot blot anti-GFP11, N = 6
Description: We infiltrated leaves with 500 μM R9-GFP11 and left the plants to incubate in situ. A higher concentration of R9-GFP11 was chosen to facilitate detection by immunoblotting. After 0, 4, 8, and 24 h of incubation, a single 12 mm leaf disc was harvested and lysed for each treatment. Two microliters of lysates were then spotted onto nitrocellulose for dot blot analysis[42] using a primary antibody raised against GFP11. […] The reduction at 24 h in the sfGFP signal is indicative of the combined intracellular and extracellular turnover of GFP11 becoming higher than the rate of delivery and complementation. […] We hypothesize that similar dynamics from apoplastic proteases[45] and intracellular degradation are at play in plants.
The third or fourth leaf of 4–5-week-old wild-type N. benthamiana was infiltrated with 500 μM R9-GFP11 in water using a needless syringe. Infiltrations were staggered such that all treatments could be harvested simultaneously for 0, 4, 8, and 24 h time points. Each treatment was performed on a separate plant and the experiment was repeated thrice. A 12 mm leaf disc was excised for each treatment using a leaf punch and flash frozen in liquid nitrogen before grinding and lysis in 20 μL RIPA buffer with 1x plant protease inhibitor cocktail (Sigma-Aldrich: P9599). The lysates were then clarified by centrifugation at 21,000 × g for 30 min. […]

Q: What does the source list for “RRRRRRRRRGSGSRDHMVLHEYVNAAGIT [R9-GFP11]”?
A: time to disappearance of GFP complementation (DCIP) signal ([1]; 100 μM, intact leaves in situ): ≤ 24 h; percentage of sfGFP positive cells, 4 h post infiltration ([1]; 100 μM, intact leaves in situ, N = 5): relatively high percentage of sfGFP positive cells; percentage of sfGFP-positive cells, 24 h post infiltration ([1]; 100 μM, intact leaves in situ, N = 5, not statistically different from non-treated control): returned nearly to baseline; delivery after re-treatment of a 24 h treated leaf ([1]; re-treated with 100 μM, imaged 4 h post re-treatment): some instances of successful delivery; time until recovered/tissue-localized peptide returns to level of non-treated control (clearance from leaf tissue) [2]: ≤ 24 h
